# From article PMC10714400, “Antimicrobial Peptide–Peptoid Hybrids with and without Membrane Disruption” (ACS Infectious Diseases, 2023)
# Like-named read-outs stand apart in the source and are kept apart here.
# Columns and labels:
# [1] = system: E. cloacae
# Outline: (§1)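 Using MTT as a visual viability dye, MICs were scored as the lowest concentration with no visible growth. Prior to staining, ~5 × 10^5 CFU per well grew in MH medium for ca. 18 h at 37 °C under static conditions.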
# [2] = system: E. coli W3110
# Outline: as §1
# [3] = system: K. pneumoniae OXA-48
# Outline: as §1
# [4] = system: PA14 2P4 (pmrB)
# Outline: as §1
# [5] = system: PA14 4.13 (phoQ)
# Outline: as §1
# [6] = system: S. aureus COL (MRSA)
# Outline: as §1
# [7] = system: ZEM-1A (clinical MDR P. aeruginosa isolate)
# Outline: as §1
# [8] = system: ZEM9A (clinical MDR P. aeruginosa isolate)
# Outline: as §1
# [9] = system: human red blood cells (hRBC); experiment: Minimum hemolytic concentration (MHC); type: cell-based; conditions: CSV
# Text: We also measured minimal hemolysis concentrations (MHC) on human red blood cells by serial 2-fold dilution as an indication of toxicity against eukaryotic cells (Table 1).
# [10] = Circular dichroism, α-helical content; type: physicochemical; conditions: 0.1 mg/mL; for CD %α with 5 mM DPC: 10 mM phosphate buffer pH 7.4, 5 mM DPC; for CD %α with 20% TFE: 10 mM phosphate buffer pH 7.4, 20% TFE
# [11] = system: B. cenocepacia
# Outline: as §1
# [12] = system: P. aeruginosa PA14
# Outline: as §1
# [13] = system: S. aureus Newman
# Outline: as §1
# [14] = system: S. epidermis
# Outline: as §1
# [15] = system: S. maltophilia
# Outline: as §1
# [16] = system: HEK293 cells; experiment: Cell viability assay by Alamar blue; conditions: read-out: Toxicity on HEK293 cells; CSV
# Outline: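 Cells kept at 37 °C in 5% CO2 with 10% FBS plus penicillin/streptomycin, in RPMI-1640 for A549 and high-glucose DMEM for HEK293, then assessed for viability by Alamar blue; values are mean ± SD of three.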
substance,measurement,setting,value
"H-KKLLKLLKLLL-NH2 [ln65, reference compound]","MIC E. cloacae, […] MH at pH 8.5","[1]; CSV, […] MH at pH 8.5",4 ug/mL
same,"MIC E. cloacae, full MH at pH 7.4","[1]; CSV, full MH at pH 7.4",2 ug/mL
same,MIC E. cloacae,"[1]; MH pH 7.4, 16–20 h at 37 °C",2 µg/mL
same,MIC E. cloacae,"[1]; Table S3, […] MH at pH 8.5",4 µg/mL
same,"MIC E. coli W3110, […] MH at pH 7.4","[2]; CSV, […] MH at pH 7.4",2 ug/mL
same,"MIC E. coli W3110, […] MH at pH 8.5","[2]; CSV, […] MH at pH 8.5",2 ug/mL
same,"MIC E. coli W3110, full MH at pH 7.4","[2]; CSV, full MH at pH 7.4",4 ug/mL
same,MIC E. coli W3110 […] 7.4,"[2]; Table S2, […] MH, pH 7.4",2 µg/mL
same,MIC E. coli W3110 […] 8.5,"[2]; Table S2, […] MH, pH 8.5",2 µg/mL
same,MIC E. coli W3110 Full MH 7.4,"[2]; Table S2, full MH, pH 7.4",4 µg/mL
same,MIC E. coli W3110 Full MH 8.5,"[2]; Table S2, full MH, pH 8.5",8 µg/mL
same,"MIC K. pneumoniae OXA-48, […] MH at pH 8.5","[3]; CSV, […] MH at pH 8.5",4 ug/mL
same,"MIC K. pneumoniae OXA-48, full MH at pH 7.4","[3]; CSV, full MH at pH 7.4",2 ug/mL
same,MIC K. pneumoniae OXA-48,"[3]; MH pH 7.4, 16–20 h at 37 °C",2 µg/mL
same,MIC K. pneumoniae OXA-48,"[3]; Table S3, […] MH at pH 8.5",4 µg/mL
same,"MIC P. aeruginosa PA14 2P4, […] MH at pH 8.5","[4]; CSV, […] MH at pH 8.5",3 ug/mL
same,"MIC P. aeruginosa PA14 2P4, full MH at pH 7.4","[4]; CSV, full MH at pH 7.4",32 ug/mL
same,MIC PA14 2P4 (pmrB),"[4]; MH pH 7.4, 16–20 h at 37 °C",32 µg/mL
same,MIC P. aeruginosa PA14 2P4,"[4]; Table S3, […] MH at pH 8.5",2 to 4 µg/mL
same,"MIC P. aeruginosa PA14 4.13, […] MH at pH 8.5","[5]; CSV, […] MH at pH 8.5",2 ug/mL
same,"MIC P. aeruginosa PA14 4.13, full MH at pH 7.4","[5]; CSV, full MH at pH 7.4",4 ug/mL
same,MIC PA14 4.13 (phoQ),"[5]; MH pH 7.4, 16–20 h at 37 °C",4 µg/mL
same,MIC P. aeruginosa PA14 4.13,"[5]; Table S3, […] MH at pH 8.5",2 µg/mL
same,"MIC S. aureus COL (MRSA), […] MH at pH 7.4","[6]; CSV, […] MH at pH 7.4",2 ug/mL
same,"MIC S. aureus COL (MRSA), […] MH at pH 8.5","[6]; CSV, […] MH at pH 8.5",2 ug/mL
same,"MIC S. aureus COL (MRSA), full MH at pH 7.4","[6]; CSV, full MH at pH 7.4",4 ug/mL
same,"MIC S. aureus COL (MRSA), full MH at pH 8.5","[6]; CSV, full MH at pH 8.5",8 ug/mL
same,MIC S. aureus COL (MRSA) […] 7.4,"[6]; Table S2, […] MH, pH 7.4",2 µg/mL
same,MIC S. aureus COL (MRSA) […] 8.5,"[6]; Table S2, […] MH, pH 8.5",2 µg/mL
same,MIC S. aureus COL (MRSA) Full MH 7.4,"[6]; Table S2, full MH, pH 7.4",4 µg/mL
same,MIC S. aureus COL (MRSA) Full MH 8.5,"[6]; Table S2, full MH, pH 8.5",8 µg/mL
same,MIC S. aureus COL (MRSA) […],"[6]; diluted MH ([…] MH, pH 8.5) per Table 1 footnote b, 16–20 h at 37 °C",2 µg/mL
same,MIC S. aureus COL (MRSA) Full,"[6]; full MH, pH 7.4, 16–20 h at 37 °C",4 µg/mL
same,"MIC P. aeruginosa ZEM-1A, […] MH at pH 8.5","[7]; CSV, […] MH at pH 8.5",4 ug/mL
same,"MIC P. aeruginosa ZEM-1A, full MH at pH 7.4","[7]; CSV, full MH at pH 7.4",2 ug/mL
same,MIC ZEM-1A,"[7]; MH pH 7.4, 16–20 h at 37 °C",2 µg/mL
same,MIC P. aeruginosa ZEM-1A,"[7]; Table S3, […] MH at pH 8.5",4 µg/mL
same,"MIC P. aeruginosa ZEM9A, […] MH at pH 8.5","[8]; CSV, […] MH at pH 8.5",4 ug/mL
same,"MIC P. aeruginosa ZEM9A, full MH at pH 7.4","[8]; CSV, full MH at pH 7.4",4 ug/mL
same,MIC P. aeruginosa ZEM9A,"[8]; Table S3, […] MH at pH 8.5",4 µg/mL
same,MHC,[9],125 µg/mL
same,CD %α with 5 mM DPC,"[10]; DichroWeb, Contin-LL",73%
same,CD %α with 20% TFE,"[10]; DichroWeb, Contin-LL",64%
same,CD %α with 5 mM DPC,[10]; Table S2,73%
same,CD %α with 20% TFE,[10]; Table S2,64%
same,"MIC B. cenocepacia, full MH at pH 7.4","[11]; CSV, full MH at pH 7.4",>32 ug/mL
same,MIC B. cenocepacia,"[11]; MH pH 7.4, 16–20 h at 37 °C",>32 µg/mL
same,"MIC P. aeruginosa PA14, […] MH at pH 8.5","[12]; CSV, […] MH at pH 8.5",2 ug/mL
same,"MIC P. aeruginosa PA14, full MH at pH 7.4","[12]; CSV, full MH at pH 7.4",3 ug/mL
same,MIC P. aeruginosa PA14,"[12]; MH pH 7.4, 16–20 h at 37 °C",2 to 4 µg/mL
same,MIC P. aeruginosa PA14,"[12]; Table S3, […] MH at pH 8.5, 16-20 hours at 37 °C",2 µg/mL
same,"MIC S. aureus Newman, […] MH at pH 8.5","[13]; CSV, […] MH at pH 8.5",2 ug/mL
same,"MIC S. aureus Newman, full MH at pH 7.4","[13]; CSV, full MH at pH 7.4",2 ug/mL
same,MIC S. aureus Newman,"[13]; MH pH 7.4, 16–20 h at 37 °C",2 µg/mL
same,MIC S. aureus Newman,"[13]; Table S3, […] MH at pH 8.5",2 µg/mL
same,"MIC S. epidermis, […] MH at pH 8.5","[14]; CSV, […] MH at pH 8.5",1 ug/mL
same,"MIC S. epidermis, full MH at pH 7.4","[14]; CSV, full MH at pH 7.4",2 ug/mL
same,MIC S. epidermis,"[14]; MH pH 7.4, 16–20 h at 37 °C",2 µg/mL
same,MIC S. epidermis,"[14]; Table S3, […] MH at pH 8.5",1 µg/mL
same,"MIC S. maltophilia, […] MH at pH 8.5","[15]; CSV, […] MH at pH 8.5",4 ug/mL
same,"MIC S. maltophilia, full MH at pH 7.4","[15]; CSV, full MH at pH 7.4",2 ug/mL
same,MIC S. maltophilia,"[15]; MH pH 7.4, 16–20 h at 37 °C",2 µg/mL
same,MIC S. maltophilia,"[15]; Table S3, […] MH at pH 8.5",4 µg/mL
same,IC50,[16],27 ± 6 µM
